Literature values, collected in patent publication US7163917B2, “Synthesis method of alanylglutamine” (priority 2002, dated 2007).
Peptide text beside a SMILES is read from it.

Tests used:
[1] = healthy human body, long period intravenous drip
[2] = solution, storage, heating to sterilize
[3] = within human body; quickly degraded into composition amino acids
[4] = background statement

## NC(=O)CC[C@H](N)C(=O)O [GLN, glutamine]
other
  solubility (in words): low in solubility

## C[C@H](N)C(=O)N[C@@H](CCC(N)=O)C(=O)O [L-Ala-L-Gln, L-alanyl-L-glutamine] (H-Ala-Gln-OH)
Synthesized by chemical method, after purification
  solubility relative to GLN monomer: 20 times
[1]
  kidney functions: not influenced
  side effects and harmful reaction: no side effects and harmful reaction occur
[2]
  stability (in words): stable in storage and at heating for sterilization
[3]
  half-life (in words): short

## CC(=O)N[C@@H](CCC(N)=O)C(=O)O [acetylglutamine, reference compound]
[4]
  quantity absorbed that is excreted from urea: 40%
[2]
  stability (in words): stable at heating

## NCC(=O)N[C@@H](CCC(N)=O)C(=O)O [glycylglutamine, L-glycyl-L-glutamine, reference compound] (H-Gly-Gln-OH)
[3]
  half-life (in words): short
